Source: PubChem BioAssay (NCI)
Where “and” joins values, the source holds several entries; their conditions need not be identical. Equal values may be shown once.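 1) Cells in 96-well plates. 2) Compound, 48 h, 5 concentrations. 3) Linear interpolation between surrounding doses. 4) Unreached endpoint = highest concentration. GI50 is the concentration that inhibits growth by half. TGI marks complete inhibition of growth.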

Legend:
Assay in all cases: growth of human tumour cells (NCI), 48 h
[1] = tested on: MALME-3M melanoma
[2] = tested on: MCF7 breast
[3] = tested on: SW-620 colon
[4] = tested on: RXF 393 renal
[5] = tested on: OVCAR-5 ovarian
[6] = tested on: MDA-MB-231 breast
[7] = tested on: SF-295 CNS
[8] = tested on: LOX IMVI melanoma
[9] = tested on: UACC-257 melanoma
[10] = tested on: SK-MEL-28 melanoma

Row | SMILES | GI50 [1] | TGI [1] | GI50 [2] | TGI [2] | GI50 [3] | TGI [3] | GI50 [4] | TGI [4] | GI50 [5] | TGI [5] | GI50 [6] | TGI [6] | GI50 [7] | TGI [7] | GI50 [8] | TGI [8] | GI50 [9] | TGI [9] | GI50 [10] | TGI [10]
1 | CCS(=O)(=O)c1cccc(-c2cc(C(=O)NC3CCN(C)CC3)c(C)c3[nH]c4ncc(C)cc4c23)c1 | 0.843 µM and 0.571 µM | 4.13 µM and 3.22 µM | 0.105 µM and 0.0631 µM | 4.27 µM and 5.96 µM | 0.268 µM and 0.143 µM | > 10 µM and 1.85 µM | 0.957 µM and 0.512 µM | 3.11 µM and 1.56 µM | 0.463 µM and 0.34 µM | > 9.67 µM and 11.4 µM | 0.232 µM and 0.196 µM | > 5.15 µM and 4.9 µM | 1.08 µM and 0.832 µM | > 10 µM and 5.63 µM | 0.168 µM and 0.16 µM | 1.22 µM and 0.747 µM | 1.26 µM and 0.562 µM | 6.79 µM and 4.67 µM | 0.834 µM and 0.566 µM | 6.53 µM and 5.09 µM
2 | CCOC1=C/C(=N\Nc2ccc([N+](=O)[O-])cc2)CCC1 | – | > 100 µM | – | > 100 µM | – | > 100 µM | – | 63.1 µM | – | > 100 µM | – | 84.6 µM | – | > 100 µM | – | > 100 µM | – | > 100 µM | – | 72.6 µM
3 | CC(C)(C)OC(=O)NCCCCCCCCCCCCn1c2c(c3ccccc3c1=O)C(=O)c1ccccc1-2 | > 100 µM | > 100 µM | > 100 µM | > 100 µM | > 100 µM | > 100 µM | 17.8 µM | 49.2 µM | 75.9 µM | > 100 µM | 21 µM | 58.9 µM | 17.5 µM | 53 µM | > 100 µM | > 100 µM | > 100 µM | > 100 µM | > 100 µM | > 100 µM
4 | COc1ccc(N=c2nc3sc4cc(Cl)ccc4n3c(N)c2C#N)cc1 | 2.25 µM | 7.42 µM | 1.92 µM | 21.5 µM | 3.69 µM | 29.7 µM | 5.27 µM | > 100 µM | 5.21 µM | > 100 µM | 3.12 µM | 16.2 µM | 2.51 µM | 23.1 µM | 2.06 µM | 5.07 µM | 35.4 µM | > 100 µM | 2.92 µM | 22.9 µM
5 | CCCCC[C@H]1C/C=C2/C(=O)C=C[C@@H]2C/C=C\CCCC(=O)O1 | 0.5 µM | 5.02 µM | 0.0884 µM | 5.44 µM | 0.177 µM | 1.06 µM | 0.0944 µM | 0.223 µM | 0.221 µM | 2.73 µM | 0.212 µM | 6.39 µM | 0.123 µM | 0.298 µM | 0.0899 µM | 0.18 µM | 0.105 µM | 0.346 µM | 0.155 µM | 0.705 µM
6 | CCN(CC)c1ccc(/C=N/N=C(N)N)cc1 | 4.45 µM | 18.7 µM | 2.62 µM | 14.8 µM | 3.08 µM | 13.6 µM | 2.85 µM | 11.7 µM | 17.1 µM | > 100 µM | 10.9 µM | 32.6 µM | 3.59 µM | 15.8 µM | 5.02 µM | 19.9 µM | 5.2 µM | 23.9 µM | 6.27 µM | 20.3 µM
7 | COc1ccc(C2=NNC(c3sc(Cl)nc3Cl)C2)cc1 (centres undefined) | 11.2 µM | 29 µM | 3.28 µM | 16.4 µM | 4.87 µM | 23.6 µM | 18.4 µM | 46.8 µM | 9.21 µM | 26.4 µM | 3.12 µM | 14 µM | 25.1 µM | 77.9 µM | 3.25 µM | 13.7 µM | 16 µM | 36.2 µM | 10.9 µM | 24.8 µM
8 | Cc1cc(C)c(-c2c(O)c(Br)c(-c3c(C)cc(C)c(Br)c3C)c(O)c2Br)c(C)c1Br | 1.65 µM | 5.8 µM | 2.38 µM | 11.8 µM | 2.94 µM | 12 µM | 2.27 µM | 7.31 µM | 2.85 µM | 9.63 µM | 1.65 µM | 4.42 µM | 1.83 µM | 5.01 µM | 1.74 µM | 3.39 µM | 2.52 µM | 12.2 µM | 2.66 µM | 12.8 µM
9 | O=C(OCC1=CC(=O)c2ccccc2C1=O)c1ccccc1 | 1.43 µM | 3.12 µM | 13.2 µM | 26.8 µM | 4.89 µM | 17.5 µM | 13.6 µM | 26.5 µM | 24.1 µM | 41.1 µM | 14.3 µM | 28.5 µM | 6.41 µM | 20.5 µM | 5.69 µM | 21.5 µM | 3.13 µM | 9.47 µM | 13 µM | 28 µM
10 | CSCc1ncc(-c2ccc(C(F)(F)F)cc2)c(NC2CCCCCC2)n1 | > 10 µM | > 10 µM | > 10 µM | > 10 µM | > 10 µM | > 10 µM | > 10 µM | > 10 µM | > 10 µM | > 10 µM | > 10 µM | > 10 µM | > 10 µM | > 10 µM | > 10 µM | > 10 µM | > 10 µM | > 10 µM | > 10 µM | > 10 µM
11 | CSC(=S)NCc1cn(C)c2ccccc12 | 24.6 µM | 92.4 µM | 24.3 µM | 90.9 µM | 30.1 µM | > 100 µM | 17.9 µM | 59.6 µM | 44.1 µM | > 100 µM | 15.4 µM | 44.5 µM | 33.5 µM | > 100 µM | 26.5 µM | 94.1 µM | 54.8 µM | > 100 µM | > 100 µM | > 100 µM
12 | S=C(Nc1ccc(-c2nc3ccccc3s2)cc1)Nc1ccc(-c2nc3ccccc3s2)cc1 | 20 µM | 65.4 µM | 25 µM | 59 µM | 23.7 µM | 67.3 µM | 15.9 µM | 50.4 µM | 20.1 µM | 48.8 µM | 13.7 µM | 35 µM | 17.6 µM | > 100 µM | 15.2 µM | 30.5 µM | 24.5 µM | 48 µM | 22.3 µM | 54.8 µM
13 | OC[C@H]1N[C@H](CO)[C@@H](O)[C@H]1O | – | > 100 µM | – | > 100 µM | – | > 100 µM | – | > 100 µM | – | > 100 µM | – | > 100 µM | – | > 100 µM | – | > 100 µM | – | > 100 µM | – | > 100 µM
14 | CCNc1ccc2c(c1)C(=O)N(OS(C)(=O)=O)C2=O | – | > 100 µM | – | > 100 µM | – | > 100 µM | – | > 100 µM | – | – | – | > 100 µM | – | > 100 µM | – | > 100 µM | – | > 100 µM | – | > 100 µM
